Test results from the supplement of paper PMC5579334.

Assays:
[1] = system: YST-1; assay: drug sensitivity score (DSS, CellTiter-Glo viability, 72 h) (DSS (dimensionless)); higher = more sensitive; extreme values may be limits of the assay
In short: (§1)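 Viability was scored by CellTiter-Glo ATP luminescence, scaled from vehicle to positive-control wells, with duplicates averaged where present. The cells, MPNST lines and primary human Schwann cells at 750–1000 per well, sat 72 h at 37 °C, 5% CO2, in 384-well plates preprinted with each compound at five concentrations in 10-fold steps. Four-parameter logistic fits were run on the data. These fits give drug sensitivity score and relative IC50 censored at the top concentration, and percent inhibition is reported at the top concentration.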

[2] = system: HS-PSS; assay: as above
In short: as §1

[3] = system: HS-Sch-2; assay: as above
In short: as §1

[4] = system: HS-PSS; assay: drug sensitivity score (DSS, CellTox-Green cytotoxicity, 72 h) (DSS (dimensionless)); higher = more cytotoxic; extreme values may be limits of the assay
In short: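 MPNST cell lines and primary human Schwann cells were incubated 72 h at 37 °C in 384-well plates holding five 10-fold compound dilutions. CellTox-Green was added before seeding at a final 1:1000 dilution and reported fluorescence from DNA released by disrupted cells. Signals were scaled to vehicle and positive-control wells, and cultures failing plate quality control were dropped. Drug sensitivity score and relative IC50 come from four-parameter logistic fits, with IC50 censored at the top concentration.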

[5] = system: YST-1; assay: % inhibition of CellTiter-Glo viability at highest tested concentration (72 h), relative to DMSO and benzethonium chloride controls; higher = more inhibition
In short: as §1

[6] = system: HS-PSS; assay: as above
In short: as §1

[7] = system: HS-Sch-2; assay: as above
In short: as §1

SMILES	drug sensitivity score [1]	drug sensitivity score [2]	drug sensitivity score [3]	drug sensitivity score [4]	% inhibition [5]	% inhibition [6]	% inhibition [7]
COc1cc(NS(C)(=O)=O)ccc1Nc1c2ccccc2nc2ccccc12 [Amsacrine] (max concentration tested 10000 nM)	15.6	5.76	11.1	1.27	86.6%	55%	81.6%
CN(C)C(=O)c1cc2cnc(Nc3ccc(N4CCNCC4)cn3)nc2n1C1CCCC1 [Ribociclib] (max concentration tested 10000 nM)	6.07	1.83	1.85	0	67%	28.2%	25.4%
Cc1cc(Nc2ncc(Cl)c(Nc3ccccc3S(=O)(=O)C(C)C)n2)c(OC(C)C)cc1C1CCNCC1 [Ceritinib] (max concentration tested 2500 nM)	8.09	10.6	1.13	0.17	82.3%	64.5%	30.9%
C1=N/C2=N/c3ccc(OCCN4CCCC4)c(c3)COC/C=C/COCc3cccc(c3)C(=C1)N2 [Pacritinib] (max concentration tested 10000 nM)	8.15	10.8	8.63	4.15	100%	99.4%	99.6%
O=C(NOCCO)c1ccc2cncn2c1Nc1ccc(I)cc1F [GDC-0623] (max concentration tested 2500 nM)	0	3.76	5.27	0.89	6.24%	37.1%	55%
Cc1sc2c(c1C)C(c1ccc(Cl)cc1)=N[C@@H](CC(=O)Nc1ccc(O)cc1)c1nnc(C)n1-2 [OTX015] (max concentration tested 10000 nM)	14.5	10.7	14.6	0	69.2%	59.5%	75.4%
CC(C)[C@H]1C(=O)N[C@@H](CCCNC(=N)N)C(=O)NCC(=O)N[C@@H](CC(=O)O)C(=O)N[C@H](Cc2ccccc2)C(=O)N1C [Cilengitide] (max concentration tested 10000 nM)	0	0	1.06	0	-3.66%	1.31%	27%
CCCC(CCC)C(=O)O [Valproic acid] (max concentration tested 1000000 nM)	2.34	0	0	0	44.2%	6.13%	2.29%
CNC(=O)c1cc(COc2nnc(Nc3ccc(Cl)cc3)c3ccoc23)ccn1 [Telatinib] (max concentration tested 10000 nM)	0.77	0	0	0	6.98%	5.71%	8.79%
COc1ccc(Cl)c(Nc2nc3ccccc3nc2NS(=O)(=O)c2cccc(NC(=O)C(C)(C)N)c2)c1 [Pilaralisib] (max concentration tested 2500 nM)	2.53	0	0.34	0	42.6%	7.45%	14.3%
CCCCCCCCCCCCCCCCCCOP(=O)([O-])OC1CC[N+](C)(C)CC1 [Perifosine] (max concentration tested 2500 nM)	0	0	0	0	-0.19%	0.4%	4.74%
COc1cc(N2CCC(N3CCN(C)CC3)CC2)ccc1Nc1ncnc(Nc2ccccc2S(=O)(=O)C(C)C)n1 [ASP3026] (max concentration tested 10000 nM)	0	0	0	0	-4.61%	2.45%	4.73%
Cc1cc(Nc2cc(N3CCN(C)CC3)nc(Sc3ccc(NC(=O)C4CC4)cc3)n2)n[nH]1 [Tozasertib] (max concentration tested 10000 nM)	12.9	4.85	8.18	0	45.5%	31.3%	61.5%
NC(=O)Nc1sc(-c2ccc(F)cc2)cc1C(N)=O [TPCA-1] (max concentration tested 25000 nM)	3.91	3.59	1.36	0	46.1%	41%	17.7%
COc1ccc(CCc2nc3cc(-c4c(C)noc4C)ccc3n2C[C@H](C)N2CCOCC2)cc1Cl [SGC-CBP30] (max concentration tested 25000 nM)	5.72	1.59	5.7	0	62%	40.4%	60.7%
CN(C)Cc1ccc(S(=O)(=O)n2ccc(/C=C/C(=O)NO)c2)cc1 [Resminostat] (max concentration tested 10000 nM)	13.8	6.36	7.57	2.12	101%	84.1%	100%
Cc1ncc(Cl)cc1NCc1ccc(C(=O)N[C@@H](CC2CCCC2)C(=O)NC2CC2)s1 (max concentration tested 5000 nM)	8.01	0	0.17	0	45.9%	10.8%	12.8%
CC(C)(O)CC(=O)NCCn1ccc2ncnc(Nc3ccc(Oc4cccc(C(F)(F)F)c4)c(Cl)c3)c21 [TAK-285] (max concentration tested 2500 nM)	0	0.89	0	0	6.24%	-2.72%	-0.95%

SMILES	drug sensitivity score [1]	drug sensitivity score [2]	drug sensitivity score [3]	drug sensitivity score [4]	% inhibition [5]	% inhibition [6]	% inhibition [7]
Cc1c(C(=O)Nc2ccc(N3C[C@@H](C)O[C@@H](C)C3)nc2)cccc1-c1ccc(OC(F)(F)F)cc1 [Sonidegib] (max concentration tested 10000 nM)	0	3.23	1.21	0	8.09%	30.6%	22.7%
CC(C)(C)C[C@@H]1N[C@@H](C(=O)N[C@H]2CC[C@H](O)CC2)[C@H](c2cccc(Cl)c2F)[C@]12C(=O)Nc1cc(Cl)ccc12 (max concentration tested 10000 nM)	21.9	1.67	0.86	0	100%	36.2%	19.6%
C=CC(=O)Nc1cc(Nc2nccc(-c3cn(C)c4ccccc34)n2)c(OC)cc1N(C)CCN(C)C [Osimertinib] (max concentration tested 2500 nM)	6.9	5.5	4.21	0.95	63.7%	66.3%	73.2%
CCN(CC)C(=S)SSC(=S)N(CC)CC [Disulfiram] (max concentration tested 100000 nM)	30.7	30.6	27	8.67	101%	101%	101%
CN(c1ncccc1CNc1nc(Nc2ccc3c(c2)CC(=O)N3)ncc1C(F)(F)F)S(C)(=O)=O (max concentration tested 10000 nM)	7.85	3.86	5.18	0.03	98.6%	73.3%	99.2%
NC1(C(=O)N[C@@H](CCO)c2ccc(Cl)cc2)CCN(c2ncnc3[nH]ccc23)CC1 [AZD-5363] (max concentration tested 10000 nM)	4.35	0.45	3.33	0	56.9%	20.3%	66.5%
O=C(CCCCCCNC(=O)c1cnc(N(c2ccccc2)c2ccccc2)nc1)NO [Rocilinostat] (max concentration tested 10000 nM)	9.5	3.58	6.66	0.39	89.5%	58.4%	81.2%
CC(C)CC(=O)Nc1n[nH]c2c1CN(C(=O)C1CCN(C)CC1)C2(C)C (max concentration tested 10000 nM)	11.8	11.5	10.2	2.57	99.8%	83.7%	101%
CN1CCN(C2CCN(C(=O)Nc3cc(Oc4ccc(NC(=O)C5(C(=O)Nc6ccc(F)cc6)CC5)c(F)c4)ccn3)CC2)CC1 [Golvatinib] (max concentration tested 2500 nM)	1.35	0.68	0.68	0	17.2%	23.6%	19.2%
Cn1cc(C2=Nc3cc(NC(=O)C(N)C4CCCCC4)cc4c3C2=CNNC4=O)cn1 (stereo not given) (max concentration tested 10000 nM)	14.8	8.91	22.7	0	51.3%	43.5%	84.3%
COc1c(OCCCN2CCOCC2)ccc2c1N=C(NC(=O)c1cnc(N)nc1)N1CCN=C21 [Copanlisib] (max concentration tested 1000 nM)	17.5	1.69	7.87	0	92.5%	44%	70.5%
Cn1cnc2c(F)c(Nc3ccc(Br)cc3F)c(C(=O)NOCCO)cc21 [Binimetinib] (max concentration tested 1000 nM)	0	0	0.81	0	6.26%	7.79%	21.1%
CCNc1nc(Nc2cc(F)c(C(=O)N3CCOCC3)cc2OC)ncc1C(F)(F)F [GNE-7915] (max concentration tested 1000 nM)	0	0	0.19	0	0.1%	8.52%	12.4%
CC(C)NC[C@@H](C(=O)N1CCN(c2ncnc3c2[C@H](C)C[C@H]3O)CC1)c1ccc(Cl)cc1 [Ipatasertib] (max concentration tested 10000 nM)	6.9	3.83	4.24	0.28	55.2%	37.1%	39.1%
Cc1cc2c(C(=O)NC[C@H](C)c3ccccc3)c(O)c(O)cc2c(O)c1-c1c(C)cc2c(C(=O)NC[C@H](C)c3ccccc3)c(O)c(O)cc2c1O [Sabutoclax] (max concentration tested 25000 nM)	17.3	4.91	19.6	0	89.2%	96.5%	99.7%
C[C@@H](Oc1ccc2[nH]nc(/C=C/c3cnn(CCO)c3)c2c1)c1c(Cl)cncc1Cl (max concentration tested 1000 nM)	6.1	7.62	6.87	2.66	55.4%	91%	67.9%
O=C(c1ccc(F)c(F)c1Nc1ccc(I)cc1F)N1CC(O)([C@@H]2CCCCN2)C1 [Cobimetinib] (max concentration tested 1000 nM)	0	4.46	4.02	0.01	-5.92%	49.3%	69.5%
